From US7476673B2, “Disubstituted chalcone oximes as selective agonists of RARγ retinoid receptors” (Allergan, Inc., priority 2003, dated 2009)
pEC50, pKi: −log10 of the molar value.

Experiments:
RARα [1] = target: T1, RARα (Homo sapiens, UniProt P10276); assay: ligand binding assay, RARα; settings: results expressed in Ki numbers, read-out: RAR Binding α
T1 sequence (P10276 1-462): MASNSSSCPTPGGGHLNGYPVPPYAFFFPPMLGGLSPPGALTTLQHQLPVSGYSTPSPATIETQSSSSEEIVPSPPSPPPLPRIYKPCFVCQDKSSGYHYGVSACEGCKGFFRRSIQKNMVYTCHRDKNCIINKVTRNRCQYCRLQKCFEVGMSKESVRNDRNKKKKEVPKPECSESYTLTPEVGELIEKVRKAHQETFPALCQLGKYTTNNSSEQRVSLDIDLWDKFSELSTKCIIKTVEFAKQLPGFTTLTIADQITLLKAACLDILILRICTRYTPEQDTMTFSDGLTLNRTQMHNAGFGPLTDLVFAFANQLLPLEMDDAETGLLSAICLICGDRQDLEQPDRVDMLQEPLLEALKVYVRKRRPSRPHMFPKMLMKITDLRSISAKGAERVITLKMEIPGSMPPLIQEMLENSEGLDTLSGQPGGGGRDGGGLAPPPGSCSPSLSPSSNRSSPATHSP
Text: (§1) A holoreceptor transactivation assay and a ligand binding assay which measure the antagonist/agonist like activity of the compounds of the invention, or their ability to bind to the several retinoid receptor subtypes, respectively, are described in published PCT Application No. WO WO93/11755 (particularly on pages 30-33 and 37-41) published on Jun. 24, 1993, the specification of which is also incorporated herein by reference. A detailed experimental procedure for holoreceptor transactivations has been described by Heyman et al. Cell 68, 397-406, (1992); Allegretto et al. J. Biol. Chem. 268, 26625-26633, and Mangelsdorf et al. The Retinoids: Biology, Chemistry and Medicine, pp 319-349, Raven Press Ltd., New York, which are expressly incorporated herein by reference. The results obtained in this assay are expressed in EC50 numbers, as they are also in the chimeric receptor transactivation assay. The results of the ligand binding assay are expressed in Ki numbers. (See Cheng et al. Biochemical Pharmacology Vol. 22 pp 3099-3108, expressly incorporated herein by reference.)
(§2) Table 1 discloses the activity of certain exemplary compounds of the invention in the above-described chimeric RAR receptor transactivation and binding assays.

RARβ [2] = target: T2, RARβ (Homo sapiens, UniProt P10826); assay: ligand binding assay, RARβ; settings: results expressed in Ki numbers, read-out: RAR Binding β
T2 sequence (P10826 1-455): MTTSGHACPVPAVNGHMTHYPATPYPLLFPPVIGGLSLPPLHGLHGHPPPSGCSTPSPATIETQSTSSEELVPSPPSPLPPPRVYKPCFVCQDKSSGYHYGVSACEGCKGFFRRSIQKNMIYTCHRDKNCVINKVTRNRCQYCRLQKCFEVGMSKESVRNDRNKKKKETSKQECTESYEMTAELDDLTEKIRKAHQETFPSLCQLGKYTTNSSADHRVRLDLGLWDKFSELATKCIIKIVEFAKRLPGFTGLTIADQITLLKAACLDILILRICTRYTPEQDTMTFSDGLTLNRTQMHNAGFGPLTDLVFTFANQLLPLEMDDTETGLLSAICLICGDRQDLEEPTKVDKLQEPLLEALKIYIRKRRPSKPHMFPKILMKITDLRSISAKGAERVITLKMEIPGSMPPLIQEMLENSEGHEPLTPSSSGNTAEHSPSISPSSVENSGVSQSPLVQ
Text: as §1, §2

RARγ [3] = target: T3, RARγ (Homo sapiens, UniProt P13631); assay: ligand binding assay, RARγ; settings: results expressed in Ki numbers, read-out: RAR Binding γ
T3 sequence (P13631 1-454): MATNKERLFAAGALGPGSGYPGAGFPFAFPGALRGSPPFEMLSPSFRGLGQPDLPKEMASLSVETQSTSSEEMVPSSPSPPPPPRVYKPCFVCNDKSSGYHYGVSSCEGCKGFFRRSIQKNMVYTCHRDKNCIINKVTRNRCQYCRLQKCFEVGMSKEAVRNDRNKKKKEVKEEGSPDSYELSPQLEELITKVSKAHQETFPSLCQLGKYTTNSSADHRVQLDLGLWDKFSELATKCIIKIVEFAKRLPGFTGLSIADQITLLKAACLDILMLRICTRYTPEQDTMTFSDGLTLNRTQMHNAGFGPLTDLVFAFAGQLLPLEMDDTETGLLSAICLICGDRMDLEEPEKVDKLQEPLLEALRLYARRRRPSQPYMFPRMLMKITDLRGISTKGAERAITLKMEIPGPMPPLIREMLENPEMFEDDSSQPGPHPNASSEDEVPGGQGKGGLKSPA
Text: as §1, §2

RARα [4] = target: T4, RARα (Homo sapiens, UniProt P10276); assay: chimeric receptor transactivation assay, RARα; format: cell-based; settings: for pEC50: chimeric receptor transactivation, read-out: RAR EC50 α; for % Efficiency α: percentage of maximum compared to standard TTNPB
T4 sequence (P10276 183-417 limits assumed): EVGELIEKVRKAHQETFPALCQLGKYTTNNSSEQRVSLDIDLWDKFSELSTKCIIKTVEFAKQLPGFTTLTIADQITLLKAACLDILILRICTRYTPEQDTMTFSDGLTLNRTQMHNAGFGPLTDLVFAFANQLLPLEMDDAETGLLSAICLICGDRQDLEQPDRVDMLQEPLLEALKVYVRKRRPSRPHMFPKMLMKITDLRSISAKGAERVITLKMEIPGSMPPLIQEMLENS
Protocol: (§3) The compounds of the invention were tested in certain assays for activity as agonists of RAR and RXR retinoid receptors. Specifically, one such assay is a chimeric receptor transactivation assay which tests for agonist-like activity in the RARα, RARβ and RARγ receptor subtypes, and which is based on work published by Feigner P. L. and Holm M. (1989) Focus, 112 is described in detail in U.S. Pat. No. 5,455,265. The specification of U.S. Pat. No. 5,455,265 is hereby expressly incorporated by reference.
as §1
(§4) Efficacy in a transactivation assay is expressed as a percentage of the maximum potency attained by the compound compared to a standard which, in this case, is the compound 4-[(1E)-2-(5,6,7,8-tetrahydro-5,5,8,8-tetramethyl-2-naphthalenyl)-1-propenyl]-benzoic acid. (TTNPB) This standard compound is described in PCT Publication WO 2002077169 A2.
as §2

RARβ [5] = target: T5, RARβ (Homo sapiens, UniProt P10826); assay: chimeric receptor transactivation assay, RARβ; format: cell-based; settings: for pEC50: chimeric receptor transactivation, read-out: RAR EC50 β; for % Efficiency β: percentage of maximum compared to standard TTNPB
T5 sequence (P10826 183-455 limits assumed): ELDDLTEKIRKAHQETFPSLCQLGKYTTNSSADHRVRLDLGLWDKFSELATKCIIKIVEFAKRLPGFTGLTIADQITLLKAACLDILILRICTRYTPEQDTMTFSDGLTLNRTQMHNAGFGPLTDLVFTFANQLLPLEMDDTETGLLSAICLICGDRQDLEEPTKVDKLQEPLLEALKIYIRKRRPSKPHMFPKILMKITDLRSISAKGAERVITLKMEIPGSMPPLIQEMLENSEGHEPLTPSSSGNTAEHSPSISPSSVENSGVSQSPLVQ
Protocol: as §3, §1, §4, §2

RARγ [6] = target: T6, RARγ (Homo sapiens, UniProt P13631); assay: chimeric receptor transactivation assay, RARγ; format: cell-based; settings: for pEC50: chimeric receptor transactivation, read-out: RAR EC50 γ; for % Efficiency γ: percentage of maximum compared to standard TTNPB
T6 construct: % Efficiency γ; other: percentage of maximum compared to standard TTNPB
T6 sequence (P13631 185-454 limits assumed): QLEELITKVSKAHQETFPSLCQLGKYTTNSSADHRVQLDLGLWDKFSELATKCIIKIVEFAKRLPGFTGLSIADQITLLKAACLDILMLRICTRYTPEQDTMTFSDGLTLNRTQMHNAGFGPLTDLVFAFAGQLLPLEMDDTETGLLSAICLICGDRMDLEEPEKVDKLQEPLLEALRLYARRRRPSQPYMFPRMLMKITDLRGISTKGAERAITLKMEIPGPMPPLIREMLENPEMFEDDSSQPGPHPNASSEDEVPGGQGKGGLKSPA
Protocol: as §3, §1, §4, §2

| SMILES | pKi (RARα [1]) | pKi (RARβ [2]) | pKi (RARγ [3]) | pEC50 (RARα [4]) | % Efficiency α (RARα [4]) | pEC50 (RARβ [5]) | % Efficiency β (RARβ [5]) | pEC50 (RARγ [6]) | % Efficiency γ (RARγ [6]) |
| --- | --- | --- | --- | --- | --- | --- | --- | --- | --- |
| CC1(C)CC(C)(C)c2cc(C(C=Cc3ccc(C(=O)O)cc3)=NO)ccc21 [drawing 31] | 5.22 | 4.96 | 7.41 | 6.87 | 55% | 7.03 | 118% | 8.70 | 91% |
| CC1(C)CCSc2ccc(C(/C=C/c3ccc(C(=O)O)cc3F)=N/O)cc21 | 5.00 | 5.10 | 7.82 | < 6.00 | – | 6.76 | 55% | 8.00 | 90% |
| CC1(C)CCCc2ccc(C(C=Cc3ccc(C(=O)O)cc3)=NO)cc21 [drawing 14] | 4.66 | 5.33 | 7.80 | < 6.00 | – | 6.36 | 88% | 8.52 | 98% |
| CC1=CCC(C)(C)c2cc(C(/C=C/c3ccc(C(=O)O)cc3F)=N/O)ccc21 | 5.15 | 4.96 | 6.59 | < 6.00 | – | 6.77 | 86% | 8.70 | 92% |
| CC1=CCC(C)(C)c2cc(C(/C=C/c3ccc(C(=O)O)cc3)=N\O)ccc21 | 5.40 | 5.52 | 7.44 | 6.29 | 50% | 7.03 | 104% | 8.40 | 95% |
| CC1(C)CC(C)(C)c2cc(C(C=Cc3ccc(C(=O)O)cc3F)=NO)ccc21 | 4.85 | 4.60 | 7.60 | < 6.00 | – | 6.94 | 79% | 9.00 | 72% |
| CC1(C)CCSc2ccc(C(C=Cc3ccc(C(=O)O)cc3)=NO)cc21 [drawing 18] | 5.30 | 5.96 | 8.22 | 6.62 | 117% | 7.10 | 87% | 9.12 | 88% |
| CC1(C)CCSc2ccc(C(C=Cc3ccc(C(=O)O)cc3)=NO)cc21 [drawing 20] | 5.35 | 5.91 | 7.26 | < 6.00 | – | 6.99 | 102% | 7.82 | 100% |
| CC1(C)CCCc2cc(C(C=Cc3ccc(C(=O)O)cc3)=NO)ccc21 [drawing 16] | 5.70 | < 5.00 | 5.22 | < 5.00 | – | < 5.00 | – | < 5.00 | – |
| COc1cc2c(cc1C(/C=C/c1ccc(C(=O)O)cc1)=N\O)C(C)(C)CCC2(C)C | 5.00 | 5.00 | 5.83 | < 6.00 | – | 5.23 | 44% | 7.08 | 107% |
| CC1(C)CC(C)(C)c2cc(C(/C=C/c3ccc(C(=O)O)cc3F)=N\O)ccc21 | 4.89 | 4.57 | 6.58 | < 6.00 | – | 6.60 | 82% | 8.05 | 79% |
| CC1(C)CCC(C)(C)c2cc(C(C=Cc3ccc(C(=O)O)cc3F)=NO)ccc21 [drawing 11] | 5.10 | 5.10 | 7.47 | < 6.00 | – | 6.93 | 85% | 9.07 | 76% |
